Laboratory results reported in patent US12188086B2, “Nucleotide analogues and use thereof for nucleic acid sequencing and analysis preliminary class” (The Trustees of Columbia University in the City of New York, priority 2018, dated 2025).
Blank lines part the entries; values can stand above or below the compound they belong to.

What was measured:
[1] = Compatibility test: stability of SS linker on sodium dithionite treatment (MALDI-TOF MS); format: physicochemical; conditions: 25 mM Na2S2O4 in PBS pH 7.4, 30 min at 37° C.
Protocol: Disclosed herein are the results of a compatibility test was performed using 3′-O-SS-dATP-SS-Rox (cal: MW1344.36 Da, observed 1345.61) as model compound. 2 μl of 0.1 mM 3′-O-SS-dATP-SS-Rox was treated with 100 μL of freshly made 25 mM Na2S2O4 (in PBS buffer [pH 7.4]) and the mixture was kept shaking for 30 min at 37° C. Then desalination was carried out with a ZipTip, and the product was subjected to MALDI TOF MS measurement. […] The result proves that the disulfide linker is stable at much higher concentration of sodium dithionite and at longer reaction time than necessary to cleave the Azo linker.
An additional compatibility test was conducted on 3′-SS-dC extended ssDNA. The single base extension experiment was carried out by adding 20 pmol Exon 8 template, 60 pmol primer (M.W. 5144), 2 mM MnCl2 and 2 U Therminator 9 polymerase in 20 μl 1×Pol buffer in each PCR reaction tube which were subject to PCR thermocycles (65° C. for 30″ 45° C. for 30″, 38 cycles). After completion of the incorporation, NaS2O4 solution was added to the reaction tube to a final concentration of 20 mM and incubated at room temperature for 40 min. Then the reaction mixture was treated with a Clean & Concentrator column to purify ssDNA. The resulting oligonucleotide was subject to MALDI-TOF MS measurement. […]

[2] = test system: Therminator IX DNA polymerase; test: Single base extension reaction, checked by MALDI-TOF MS; format: biochemical; set-up: efficiency of primer strand extension: concentration or dose not given beside the values; conditions: for efficiency of primer strand extension: no primer peak is visible
Protocol: A single base DNA extension reaction (SBE) was performed with 3′-O-SS (DTM)-dTTP-PEG4-Azo-Cy5, using a primer (5′-[…]-3′ [SEQ ID 1]) and a synthetic DNA template (5′-[…]-3′ [SEQ ID 2]) based on a portion of exon 8 of the human p53 gene as follows. The bold letters in the template represent the extension position for the primers. 2 μL of 10× concentrated buffer, 1 μL of primer, E8TT (MW: 5163, 100 μM), 3 μL of Exon 8 template (20 μM), 1 μL of nucleotide (3′-O-t-butyl-SS-dTTP-PEG4-Azo-Cy5, 432 μM), 1 μL of Therminator IX DNA Polymerase, T9 (10 U/λ) and 12 μL of dH2O were combined in a total volume of 20 μL. The reaction consisted of 38 cycles at 65° C. for 30 seconds and 45° C. for 30 seconds. Single base extension was confirmed by MALDI-TOF MS as indicated by the major peak at 6791.8 Da (calc'd, 6782.4 Da) in the spectrum.
Synthesized 3′-O-t-butyl-SS-dATP-PEG4-Azo-Biotin was used to perform a single-base extension reaction. The primer E8AA-6084 (5′-[…]-3′ at 6084 Da), exon 8 template (see sequence above) and Therminator IX DNA polymerase (T9) were added along with the modified nucleotides. In the 3′-O-t-butyl-SS-dATP-PEG4-Azo-Biotin (A7) incorporation reaction, the primer was extended to 7327.4 Da (expected, 7326.3 Da). No primer peak was detected using MALDI TOF MS after 38 cycles of reaction.
Extension reactions consisted of 3 μl template (60 μM), 1 μl primer (100 μM), 2 μl of one of the above ddNTP analogues (100 μM), 2 μl 10× Thermo Pol Buffer, 1 μl Therminator IX DNA polymerase (10 unit/μl) and 11 μl water. Extension was performed in a thermal cycler and consisted of 1 min denaturation at 65° C., followed by 38 cycles of 30 sec at 65° C., 30 sec at 45° C. and 30 sec at 65° C., with a final 3 min extension at 72° C., and storage at 4° C. Desalting was carried out using Oligo Clean & Concentrator (Zymo Research) according to the manufacturer's instructions prior to checking results of polymerase reaction by MALDI-TOF-MS.

[3] = Sodium dithionite cleavage of azo linker on single base extended primer (MALDI-TOF MS); format: physicochemical
Protocol: The azo cleavage reaction was performed on single base extended primer (E8TT+3′-O-t-butyl-SS-dTMP-PEG4-Azo-Cy5, 6782.4 Da). A 1M stock solution of Na2S2O4 was prepared in 1×PBS buffer (pH 7.4). 1.25 μL Na2S2O4 solution was added to the extended primer solution (20 μL, 32 μM) along with 28.75 μL of 1×PBS buffer. […] Afterwards, reaction mixtures were purified with a ZipTip and concentrated using a Speed Vac. The size of the cleaved extended primer was characterized by MALDI-TOF MS as 6009.44 Da (calc'd: 6008.9 Da).
Single base extended primers (6084ExAA+3′-O-t-butyl-SS-dAMP-PEG4-Azo-Biotin, 7327.4 Da) was treated with 25 mM sodium dithionite in 1×PBS buffer. […] The azo cleaved product reflects a molecular weight of 6951.1 Da which agrees with the expected value of 6952.3 Da. […]

[4] = THP cleavage of SS linker / 3′ blocking group on extended primer (MALDI-TOF MS); format: physicochemical
Protocol: Tris(hydroxypropyl)phosphine (THP) (1 μL, 1 mM) was added to the azo cleaved extended primer (9 μL, 15 μM) (E8TT+3′-O-t-butyl-SS-dTMP-PEG4-aniline, 6009.44 Da). […] After the spin column-based nucleic acid purification (ZymoPURE Oligo Clean & Concentrator), the product was confirmed by MALDI-TOF MS: 5881.4 Da (calc'd: 5874.9 Da). […]

Thermo Sequenase = Thermo Sequenase (Thermus aquaticus, UniProt P19821, F272M/F667Y); conditions: read-out: concentration that produces the half maximum fluorescent intensity; 0.3 μM single fluorescein labeled self-primed template, 10 pH dCTP, ddCTP 0 to 10 μM
Chain of Thermo Sequenase (P19821 272-832 F272M/F667Y): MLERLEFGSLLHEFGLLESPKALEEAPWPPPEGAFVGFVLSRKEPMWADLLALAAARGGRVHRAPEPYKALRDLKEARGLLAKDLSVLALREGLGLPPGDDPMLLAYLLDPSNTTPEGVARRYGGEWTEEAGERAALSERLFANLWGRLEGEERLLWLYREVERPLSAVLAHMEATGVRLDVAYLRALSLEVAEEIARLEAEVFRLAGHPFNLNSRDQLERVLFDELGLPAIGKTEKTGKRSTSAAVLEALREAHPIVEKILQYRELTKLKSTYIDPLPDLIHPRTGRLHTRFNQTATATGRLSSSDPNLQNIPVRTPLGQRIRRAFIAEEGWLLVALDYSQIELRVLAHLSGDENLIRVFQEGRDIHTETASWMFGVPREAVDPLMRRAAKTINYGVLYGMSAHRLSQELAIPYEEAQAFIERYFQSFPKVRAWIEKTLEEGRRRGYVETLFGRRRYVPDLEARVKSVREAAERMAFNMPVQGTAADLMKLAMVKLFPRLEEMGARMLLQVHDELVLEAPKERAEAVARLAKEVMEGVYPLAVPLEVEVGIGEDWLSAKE
Protocol: A. Varying concentrations of ddCTP (0 to 10 μM) were added to solutions containing Thermo Sequenase, 0.3 μM single fluorescein labeled self-primed template and 10 pH dCTP. […] B. The same experiments performed with the tagged ddCTP (0 to 5 μM) shown in FIG. 79 in the presence of the same template and 5 μM dCTP.
Extension reactions were prepared with the primer, Thermo Sequenase, dCTP and various dilutions of ddCTP or tagged ddCTP. First, a series of SBE reactions were carried out with final ddCTP concentrations ranging from 0 to 10 μM at a concentration of dCTP of 10 μM and 0.3 pH of labeled primer. Under these conditions, the primer is extended by the incorporation of dCTP until it encounters ddCTP incorporation. […] Fluorescence intensity was measured on a SpectraMax3 Microplate Reader (Molecular Devices, LLC).

[5] = 25 mM sodium dithionite at 45° C. for 1 minute

Compound: 3′-O-t-Butyl-SS(DTM)-dATP-PEG4-Azo-Biotin [3′-O-t-butyl-SS-dATP-PEG4-Azo-Biotin]
- efficiency of primer strand extension [2]: ~100%
- cleavage of azo linker on extended primer ([3]; 25 mM sodium dithionite in 1×PBS, 37° C. for 10 min): can be cleaved efficiently

Compound: Nc1ccn([C@H]2CC[C@@H](COP(=O)(O)OP(=O)(O)OP(=O)(O)O)O2)c(=O)n1 [ddCTP]
- IC50 (Thermo Sequenase): ~500 nM

Compound: ddCTP-5-SS-Biotin
- efficiency of primer strand extension [2]: ~100%
- cleavage of SS linker on extended primer ([4]; THP): complete cleavage

Compound: ddGTP-7-SS-Cy5
- efficiency of primer strand extension [2]: ~100%

Compound: ddTTP-5-Azo-Cy5
- efficiency of primer strand extension [2]: ~100%
- cleavage of azo linker on extended primer [3, 5]: complete cleavage

The next lines start with results.

- integrity in the presence of Na2S2O4 [1]: no cleavage or degradation was observed
Compound: 3′-O-SS-dATP-SS-Rox

- incorporation rate ([2]; 38 cycles at 65° C. for 30 seconds and 45° C. for 30 seconds, no primer peak observed): 100%
- cleavage of azo linker on extended primer ([3]; 25 mM sodium dithionite at 37° C. for 20 minutes): complete cleavage
Compound: 3′-O-t-Butyl-SS(DTM)-dTTP-PEG4-Azo-Cy5 [3′-O-t-butyl-SS-dTTP-PEG4-Azo-Cy5]
- removal of 3′ blocking group ([4]; 1 mM THP for 5 minutes at 65° C.): removed the blocking group with high efficiency

- efficiency of primer strand extension [2]: ~100%
- cleavage of azo linker on extended primer [3, 5]: complete cleavage
Compound: ddATP-7-Azo-Biotin
